Key:
MC38-OVA cells = experiment: T cell-mediated killing of inosine-pretreated MC38-OVA cells; assay type: cell-based; conditions: pretreatment of tumor cells prior to co-culture with activated tumor-specific T cells
Method: FIG. 17A-17B. […] (a) MC38 tumor cells were treated with the indicated doses of inosine in vitro for 72 hours. Cell death and survival was assessed through flow cytometry. (b) MC38 tumor cells expressing full length ovalbumin (MC38-OVA) were treated with the indicated doses of inosine in vitro for 72 hours. In parallel, OVA-specific naïve CD4 and CD8 T cells from spleens of OT-II and OT-I mice, respectively, were activated with anti-CD3/anti-CD28 beads and rmIL-2 (20 IU/ml) for 72 hours. Inosine was then washed away from conditioned MC38-OVA cells and fresh medium together with activated T cells were added (100,000 MC38-OVA cells+25,000 CD4 cells+25,000 CD8 cells). 72 hours later, cell death and survival of MC38-OVA cells was assessed through flow cytometry. Grey and black dash-dotted lines indicate MC38-OVA cell viability and death when co-cultured with naïve OVA-specific CD4 and CD8 T cells. Data are mean±SEM and pooled from two individual experiments. n=6 biological replicates/condition. #, & P<0.05, **, P<0.01; (**=0.0001 vs 10 mM, #0.001 vs 10 mM and & 1 vs 10 mM)

MC38 tumor cells = experiment: MC38 tumors in GF mice: inosine with anti-CTLA-4 with or without CpG; assay type: in vivo
Method: FIG. 5A-5L: Inosine promotes Th1 activation and anti-tumor immunity. (a) Schematic overview of experimental setup to assess the effect of inosine on Th1 activation in vivo. (b, c) Representative dot plots and quantification (left and right panel respectively) of T-bet^+IFN-γ^+CD3ε^+ (b) CD8^+ or (c) CD4^+ T cells in the MLN. (d) Schematic overview of experimental setup to assess the effect of inosine on anti-tumor immunity. Upon palpable tumors, mice were treated with 100 μg anti-CTLA-4 i.p. (5 times every 72 hours) and in some groups 20 μg CpG i.p. (5 times every 72 hours). In addition, inosine (300 mg/KG/BW) or PBS was given daily orally (O), through gavage or systemically (S) through i.p. injection. (e) Tumor weight and quantification of IFN-γ^+ cells amongst (f) CD4^+ or (g) CD8^+ cells are shown. (h). Schematic overview to assess the requirement of A2AR signaling for inosine-induced anti-tumor immunity. 1×10^6 MC38 cells (s.c.) and WT or A2AR-deficient 1×10^7 T cells (i.v. 6×10^6 CD4^+ and 4×10^6 CD8^+ cells) were injected. Upon palpable tumors, mice were treated with 100 μg anti-CTLA-4, 20 μg CpG (4 times every 72 hours, both i.p.) and inosine (daily, 300 mg/KG/BW, through gavage). (i) Pictures of tumors are shown at day 20. scale bars: 1 cm. (j) Tumor weight and quantification of IFN-γ^+ in (k) CD8^+ or (l) CD4^+ cells in the tumor are shown. Data are mean±SEM and pooled from two individual experiments (a-l) 10-11 mice/group. *, P<0.05; **, P<0.01; ***, P<0.001.
FIG. 18A-18H: Classical dendritic cells are required for bacteria dependent effect of ICB. (a) IL-12p70 expression in classical dendritic cells (MHCII^+CD11c^+B220^−CD64^−) and macrophages (MHCII^+CD11c^+B220^−, CD64^+) (b) Quantification of IL-12p70 expression in macrophages and cDCs. Classical dendritic cells were depleted with diphtheria toxin (DT) in bone marrow chimeric mice after MC38 tumor challenge, followed by anti-CTLA-4 treatment (see FIG. 4h for experimental setup). Quantification of splenic (c) IFN-γ^+CD8^+ or (d) Ki-67^+ CD8^+ T cells. (e and f) same as (c and d) but for CD4^+ T cells. (g and h) 1×10^6 MC38 cells (s.c.) were injected in GF mice. Seven days later upon palpable tumors, mice were treated with 100 μg anti-CTLA-4 i.p. (5 times every 72 hours) and in some groups 20 μg CpG i.p. (5 times every 72 hours). In addition, inosine (300 mg/KG/BW) or PBS was given daily orally (O), through gavage or systemically (S) through i.p. injection. Quantification of Ki-67^+ cells is shown. […]
To evaluate the effect of inosine on Th1 activation, mice received 30 μg CpG, […] EndoFit Ovalbumin (both Invivogen) and 2 μg OVA323-339 (Sigma) i.p. and 24 hours later mice received 300 mg/kg/BW inosine or PBS as a control through i.p. injection. T cell differentiation was assessed 48 hours later. […]

[1] = with anti-CTLA-4, in the absence of CpG
[2] = with anti-CTLA-4 and CpG, oral or systemic, vs PBS

With `OC[C@H]1O[C@@H](n2cnc3c(O)ncnc32)[C@H](O)[C@@H]1O` [inosine] the “T cell-mediated killing of tumor cells” value (MC38-OVA cells) was “did not promote or inhibit T cell-mediated killing of tumor cells”, the anti-tumor immunity (MC38 tumor cells; [1]) was “reduced anti-tumor immunity” and the tumor weight (MC38 tumor cells; [1]) was “increased tumor weight”. For the same compound, the anti-tumor immunity (MC38 tumor cells; [2]) was “increased anti-tumor immunity” and the tumor weight (MC38 tumor cells; [2]) was “reduction of tumor weight”.
